One may read the EC50 as the midpoint of the concentration-response curve. High values mean a less potent agent, low ones a more potent agent. As a reminder, the ED50 is the dose at which the effect has come halfway, by size or by number of responders. Broadly, the IC50 is the midpoint of a concentration-inhibition curve. The term Ki denotes a measure of affinity in units of concentration, obtained from inhibition or displacement. As a reminder, the Emax is the size of the effect at its maximum, as opposed to the concentration needed.

For one test, the target named is human VR1 receptor (Homo sapiens, UniProt Q8NER1). Kind of test: Ca2+ influx (Fluo-3) in HEK-hVR1 cells (Example 2). Particulars: for EC50: VR1 (EC50, nM), Ca2+ in HEK cells with human VR1; for VR1 efficacy: maximal concentration (usually 10 μM), percent of effect of 4 μM ionomycin. The test is classed as cell-based. On the set-up: expressed in transfected cells; host or cells: HEK 293 cells (HEK-hVR1). The method, then:
N18TG2 and RBL-2H3 cells were grown as described in Melck et al, Bioch. Biophys. Res. Commun. 262:275-284 (1999). Ionomycin was purchased from Sigma. DMH-arvanil, and six substituted dimethylpentyl (DMP) derivatives of arvanil and met-AEA were synthesized as described in Example 1.
HEK-hVR1 cells were prepared and loaded as described in De Petrocellis, et al., FEBS Lett. 483:52-56 (2000). Experiments were carried out by measuring fluorescence at 25° C. […] Capsazepine (1-5 μM) was added 30 minu. Before the test compounds.
(§1) In Table 1, affinity for CB1 and CB2 receptors was measured in displacement assays carried out using rat brain or spleen membranes and [^3H]CP 55,940 or […], respectively. Potency at human VR1 was established by measuring the stimulatory activity of the compounds on the Ca^2+ intracellular concentration in HEK cells transfected with cDNA encoding the human VR1 receptor. Efficacy at VR1 was measured by expressing the effect of a maximal concentration of each compound (usually 10 μM) as percent of the maximal possible effect obtained with 4 μM ionomycin. Data are means ±SEM of at least n=3 separate determinations. *Ki was determined in the presence of PMSF.

The test system of another test is mice. Put plainly: Mouse 'tetrad' of tests after i.v. administration (Example 2). The conditions noted are these: Mus musculus, iv.
In test [1] the test system is anandamide membrane transporter (AMT). The test is classed as cell-based, rat. The conditions noted are these: [14C]AEA uptake, RBL-2H3 cells. Here is the method: (§2) The effect of compounds on the enzymatic hydrolysis of [^14C] AEA (6 μM) was studied by using membranes prepared from N18TG2 cells incubated with increasing concentrations of compounds in 50 mM Tris-HCL, pH 9, for 30 min at 37° C. [^14C] Ethanolamine produced from [^14C] AEA hydrolysis was quantified by scintillation spectroscopy and used to measure fatty acid amide hydrolase (FAAH) activity. The effect of compounds on the uptake of AEA by RBL-2H3 cells was studied with a procedure analogous to that described in Melck, ibid., and modified as described in Hilliard et al., J. Neurochem. 69:631-638 (1997). Cells were incubated with [^14C] AEA (4μM) for 5 min. at 37° C., in the presence or absence of varying concentrations of the inhibitors. Residual [1^4C] AEA in the incubation media after extraction with CHCl3/CH30H (2:1 by volume) was used as a measure of the AEA that was taken up by cells.
In consideration of the potent inhibition of the AMT previously observed with arvanil and its derivatives (see Melck, ibid), the seven compounds were also tested for their inhibitory effect on [^4C] […] Thus, the results in Table 1 confirm the existence of a partial overlap between the ligand recognition properties of VR1 receptors and the AMT (14.24).

The target in test [2] is T1, fatty acid amide hydrolase (FAAH) (Mus musculus, UniProt O08914).
T1 construct: membranes prepared from N18TG2 cells; endogenous in cells; host or cells: N18TG2 cell membranes
T1 sequence (O08914 1-579): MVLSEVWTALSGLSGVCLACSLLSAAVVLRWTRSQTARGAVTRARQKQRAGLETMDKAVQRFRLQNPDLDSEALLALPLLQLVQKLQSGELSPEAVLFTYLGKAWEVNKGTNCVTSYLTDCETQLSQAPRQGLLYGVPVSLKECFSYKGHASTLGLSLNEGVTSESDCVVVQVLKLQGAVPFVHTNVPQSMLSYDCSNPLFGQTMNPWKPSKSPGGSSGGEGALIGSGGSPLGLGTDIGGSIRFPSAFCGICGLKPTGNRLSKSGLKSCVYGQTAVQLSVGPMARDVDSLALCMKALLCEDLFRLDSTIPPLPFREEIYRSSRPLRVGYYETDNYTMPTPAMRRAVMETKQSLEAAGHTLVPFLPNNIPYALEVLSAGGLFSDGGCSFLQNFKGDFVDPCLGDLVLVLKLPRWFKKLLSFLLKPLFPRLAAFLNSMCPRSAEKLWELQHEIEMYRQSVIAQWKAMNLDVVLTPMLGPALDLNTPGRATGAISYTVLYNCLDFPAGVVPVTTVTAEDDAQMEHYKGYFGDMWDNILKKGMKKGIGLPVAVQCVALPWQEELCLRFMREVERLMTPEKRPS
Put plainly: [14C]AEA hydrolysis by N18TG2 cell membranes. It counts as biochemical. The method, then: as §2
Accordingly, when the compounds were tested for their capability of inhibiting [^14C] […] This is in agreement with previous observations that Me-AEA, DMH-derivatives of AEA and arvanil are poor substrates for FAAH. The two exceptions were O-1856 and O-1895, which did inhibit the hydrolysis of [^14C] AEA, although not very potently.

Another test addresses T2, CB2 receptors (Rattus norvegicus, UniProt Q9QZN9).
T2 construct: rat spleen membranes, which contain mostly CB2 receptors; from tissue; host or cells: rat spleen membranes
T2 sequence (Q9QZN9 1-360): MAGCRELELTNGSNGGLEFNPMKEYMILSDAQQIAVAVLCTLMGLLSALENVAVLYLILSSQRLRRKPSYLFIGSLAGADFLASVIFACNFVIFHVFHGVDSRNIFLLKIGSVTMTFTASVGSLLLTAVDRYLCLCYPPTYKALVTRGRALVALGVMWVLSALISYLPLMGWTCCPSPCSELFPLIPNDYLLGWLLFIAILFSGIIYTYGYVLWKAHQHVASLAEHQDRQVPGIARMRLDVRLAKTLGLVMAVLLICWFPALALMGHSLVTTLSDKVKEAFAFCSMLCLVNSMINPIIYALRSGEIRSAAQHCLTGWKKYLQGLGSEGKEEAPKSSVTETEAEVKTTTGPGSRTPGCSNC
Kind of test: CB2 binding, displacement of [3H]WIN55,212-2 from rat spleen membranes. Here is the method: (§3) For CB1 receptor binding, [^3H]CP-55,940 (Kd=[…]) was incubated with P2 membranes from whole rat brains as described in Compton et al., J. Pharm. Exp. Ther. 265:218-226 (1993). Displacement curves were generated by incubating drugs with 1 nM of [^3H]CP-55,940. The assays were performed in triplicate, and the results represent the combined data from three individual experiments. A separate set of experiments were conducted in which phenylmthylsulfonylfluoride (PMSF) was added at a concentration of 100 μm in order to prevent possible metabolism of the analogs. CB2 binding assays were performed as described in Melek et al., ibid. In all cases, Ki values were calculated applying the Cheng-Prusoff equation to the IC50 values (obtained by GraphPad) for the displacement of the bound radioligand by increasing concentrations of the test compounds.
as §1
The hydroxy analog is much less CB1 vs. CB2 selective in both series.
On the technique in general: Displacement assays read how much labelled ligand stays bound in the presence of the test substance.

The target in test [3] is T3, CB1 receptors (Rattus norvegicus, UniProt P20272). Put plainly: Agonist-stimulated [35S]GTPγS binding, rat hippocampal membranes. On the technique in general: GTPγS is a poorly hydrolysed GTP analogue; its binding reports G protein activation.
In test [4] the target is T3, CB1 receptors. Kind of test: CB1 receptor binding, displacement of [3H]CP-55,940 from rat brain P2 membranes (Example 2). Also on record: from tissue; host or cells: whole rat brain membranes. The conditions noted are these: CB1 (Ki, nM), rat brain membranes. The method, then: as §3, §1
The mark [5] stands for this setting: read-out: Average ED50 for the four effects.
The mark [6] stands for this setting: read-out: R.I. (relative immobility) ED50.
Where [7] appears, read: read-out: R.T. (rectal temperature) ED50.
Where [8] appears, read: read-out: S.A. (spontaneous activity) ED50.
[9] abbreviates: read-out: T.F. (tail-flick) ED50.
The mark [10] stands for this setting: determined in the presence of PMSF, [3H]CP 55,940, PMSF 100 μM.

SMILES strings stand for the structures. Like-named read-outs stand apart in the source and are kept apart here.

human VR1 receptor, sequence (Q8NER1 whole entry): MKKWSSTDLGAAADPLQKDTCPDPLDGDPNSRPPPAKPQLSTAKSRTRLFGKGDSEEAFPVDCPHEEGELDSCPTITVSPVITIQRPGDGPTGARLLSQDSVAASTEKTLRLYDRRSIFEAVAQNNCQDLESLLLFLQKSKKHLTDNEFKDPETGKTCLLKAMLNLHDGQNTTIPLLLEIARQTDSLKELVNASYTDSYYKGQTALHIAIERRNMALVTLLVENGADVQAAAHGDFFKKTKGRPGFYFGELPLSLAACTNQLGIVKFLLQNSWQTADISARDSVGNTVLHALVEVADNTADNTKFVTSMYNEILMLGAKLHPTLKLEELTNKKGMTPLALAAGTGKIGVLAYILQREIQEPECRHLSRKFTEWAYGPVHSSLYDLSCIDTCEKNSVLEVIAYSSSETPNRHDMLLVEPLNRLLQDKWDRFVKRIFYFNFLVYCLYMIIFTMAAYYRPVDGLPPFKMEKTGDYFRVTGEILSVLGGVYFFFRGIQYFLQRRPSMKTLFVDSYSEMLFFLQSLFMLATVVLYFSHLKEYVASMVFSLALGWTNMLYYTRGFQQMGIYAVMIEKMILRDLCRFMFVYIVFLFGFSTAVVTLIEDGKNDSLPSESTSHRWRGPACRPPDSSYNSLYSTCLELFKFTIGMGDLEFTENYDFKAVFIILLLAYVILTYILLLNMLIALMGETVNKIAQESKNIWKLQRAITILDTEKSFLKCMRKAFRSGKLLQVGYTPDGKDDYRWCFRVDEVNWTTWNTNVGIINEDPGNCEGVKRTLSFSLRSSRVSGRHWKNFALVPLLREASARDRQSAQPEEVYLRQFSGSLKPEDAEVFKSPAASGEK
T3 sequence (P20272 whole entry): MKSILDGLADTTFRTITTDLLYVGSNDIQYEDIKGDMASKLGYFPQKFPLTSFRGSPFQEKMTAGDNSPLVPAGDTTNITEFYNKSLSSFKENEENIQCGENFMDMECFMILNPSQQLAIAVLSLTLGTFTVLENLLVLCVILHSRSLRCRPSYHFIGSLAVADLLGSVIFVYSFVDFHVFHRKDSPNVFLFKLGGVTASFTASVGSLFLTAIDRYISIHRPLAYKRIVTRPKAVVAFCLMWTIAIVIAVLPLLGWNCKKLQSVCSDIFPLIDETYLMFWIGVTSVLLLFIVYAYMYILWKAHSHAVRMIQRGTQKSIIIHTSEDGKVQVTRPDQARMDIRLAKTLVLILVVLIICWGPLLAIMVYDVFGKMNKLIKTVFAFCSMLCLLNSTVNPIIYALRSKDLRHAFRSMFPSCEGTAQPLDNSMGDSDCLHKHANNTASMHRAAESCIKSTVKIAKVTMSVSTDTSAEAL

As for `COc1cc(CNC(=O)CCC/C=C\C/C=C\C/C=C\C/C=C\C(C)(C)CCCCBr)ccc1O` [Compound O-1861, 20-Bromo-16,16-dimethyl-eicosa-5,8,11,14-all-cis-tetraenoic acid (4-hydroxy-3-methoxy-benzyl) amide], the EC50 at human VR1 receptor turned out to be 30 ± 0.2 nM; at CB1 receptors [3], 70 nM. Also, the VR1 efficacy at human VR1 receptor was determined as 74.0 ± 4.5%. Moreover, the ED50 turned out to be 0.068 mg/kg in the test on mice (setting [5]); 0.055 mg/kg with mice (setting [6]); 0.053 mg/kg in the test with mice (setting [7]); 0.06 mg/kg in the test on mice (setting [8]); 0.104 mg/kg with mice (setting [9]). For the same compound, the results for the IC50 in test [1] and in test [2] were 13500 nM and more than 50000 nM, respectively. In addition, the Ki on CB2 receptors is more than 10000 nM; on CB1 receptors [4] (setting [10]), 24.3 ± 2.6 nM; on CB1 receptors [4] ([3H]CP 55,940, without PMSF) it was 32.6 ± 1.2 nM. For the same compound, the Emax on CB1 receptors [3] (read-out: GTPγS binding (Emax)) turned out to be 32%.

In the case of `COc1cc(CNC(=O)CCC/C=C\C/C=C\C/C=C\C/C=C\C(C)(C)CCCCC#N)ccc1O` [Compound O-1895, 20-Cyano-16,16-dimethyl-eicosa-5,8,11,14-all-cis-tetraenoic acid (4-hydroxy-3-methoxy-benzyl) amide], the EC50 on human VR1 receptor was found to be 1 ± 0.2 nM. The VR1 efficacy on human VR1 receptor stood at 83.1 ± 6.1%. For the same compound, the ED50 with mice (setting [5]) worked out at 0.219 mg/kg; in the test on mice (setting [6]), 0.168 mg/kg; in the test on mice (setting [7]), 0.179 mg/kg; in the test with mice (setting [8]), 0.265 mg/kg; with mice (setting [9]) it was 0.263 mg/kg. Further, the results for the IC50 in test [1] and in test [2] were 38400 ± 3100 nM and 18000 ± 2700 nM, respectively. The Ki came to 5000 ± 850 nM at CB2 receptors; 44.8 ± 8.3 nM on CB1 receptors [4] (setting [10]); 67 ± 7.5 nM at CB1 receptors [4] ([3H]CP 55,940, without PMSF).

For the origin of these results see patent US20040122089A1, “Novel eicosanoid analgesics” (priority 2001, published 2004).
